Where a name gives a salt, the structure may show the parent alone.
Experiments:
PDE10A (human) = target: T1, PDE10A (human) (Homo sapiens, UniProt Q9Y233); experiment: Measurement of PDE activity (HTRF cAMP kit), human PDE10A; type: biochemical; conditions: PDE enzymatic reaction, substrate 20 nM for PDE10, 60 minutes at 29 C
T1 construct: purchased BPS Bioscience
In short: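 Recombinant human PDE10A (10–250 pM range across PDEs) with 20 nM cAMP substrate in 20 mM Tris-HCl pH 7.5, 10 mM MgCl2, 0.1% BSA, compound pre-mixed with enzyme. Ran 60 min at 29 °C. Remaining cAMP read by HTRF, converted to % of uninhibited activity, and IC50 fitted.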

[1] = Determination of the microsomal half-life, rat liver microsomes; conditions: rat, liver microsomes, pH 7.4
[2] = Determination of the microsomal half-life, human liver microsomes; conditions: human, liver microsomes, pH 7.4
Experimental: The test substances were incubated in a concentration of 0.5 μM as follows:
0.5 μM test substance are preincubated together with liver microsomes from different species (from rat, human or other species) (0.25 mg of microsomal protein/10 in 0.05 M potassium phosphate buffer of pH 7.4 in microtiter plates at 37° C. for 5 min. The reaction is started by adding NADPH (1 mg/mL). After 0, 5, 10, 15, 20 and 30 min., 50 μl aliquots are removed, and the reaction is immediately stopped and cooled with the same volume of acetonitrile. The samples are frozen until analyzed. The remaining concentration of undegraded test substance is determined by MSMS. The half-life (T½) is determined from the gradient of the signal of test substance/unit time plot, it being possible to calculate the half-life of the test substance, assuming first order kinetics, from the decrease in the concentration of the compound with time. The microsomal clearance (mCl) is calculated from mCl=ln 2/T½/(content of microsomal protein in mg/ml)×1000 [ml/min/mg]

T1 sequence (Q9Y233 whole entry): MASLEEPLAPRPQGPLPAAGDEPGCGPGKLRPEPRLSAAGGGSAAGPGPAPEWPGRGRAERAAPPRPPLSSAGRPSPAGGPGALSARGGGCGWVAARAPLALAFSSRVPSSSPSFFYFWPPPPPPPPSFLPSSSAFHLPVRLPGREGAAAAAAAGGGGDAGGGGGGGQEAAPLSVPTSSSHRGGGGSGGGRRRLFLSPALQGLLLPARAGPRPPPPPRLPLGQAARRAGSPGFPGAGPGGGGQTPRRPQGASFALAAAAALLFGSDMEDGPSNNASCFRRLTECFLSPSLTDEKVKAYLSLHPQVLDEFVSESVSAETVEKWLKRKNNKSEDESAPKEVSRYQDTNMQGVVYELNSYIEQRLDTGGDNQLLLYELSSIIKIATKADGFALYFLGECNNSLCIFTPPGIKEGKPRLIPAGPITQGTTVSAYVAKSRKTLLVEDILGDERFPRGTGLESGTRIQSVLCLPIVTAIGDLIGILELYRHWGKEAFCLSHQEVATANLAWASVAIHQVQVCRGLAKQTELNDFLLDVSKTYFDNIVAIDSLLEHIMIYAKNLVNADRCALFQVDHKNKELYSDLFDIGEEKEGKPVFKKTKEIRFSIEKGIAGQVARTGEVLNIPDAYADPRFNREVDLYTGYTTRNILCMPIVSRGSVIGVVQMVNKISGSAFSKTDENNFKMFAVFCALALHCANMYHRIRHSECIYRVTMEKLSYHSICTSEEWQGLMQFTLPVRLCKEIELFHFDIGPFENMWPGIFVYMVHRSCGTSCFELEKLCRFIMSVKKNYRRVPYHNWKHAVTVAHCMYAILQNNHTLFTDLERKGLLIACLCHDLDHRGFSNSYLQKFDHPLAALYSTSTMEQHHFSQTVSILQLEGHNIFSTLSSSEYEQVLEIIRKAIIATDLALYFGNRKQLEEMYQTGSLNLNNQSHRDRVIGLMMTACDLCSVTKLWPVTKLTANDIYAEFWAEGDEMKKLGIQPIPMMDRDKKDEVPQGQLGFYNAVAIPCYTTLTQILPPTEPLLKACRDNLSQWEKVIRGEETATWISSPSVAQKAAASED

| SMILES | IC50 (PDE10A (human)) [nM] | microsomal CLint at 0.5 μM [1] [µL/min/mg] | microsomal CLint at 0.5 μM [2] [µL/min/mg] |
| --- | --- | --- | --- |
| COc1ccc(-c2cncnc2)c2c1CN(CCc1cn3ccccc3n1)C2=O [Example 217, 2-(2-Imidazo[1,2-a]pyridin-2-yl-ethyl)-4-methoxy-7-pyrimidin-5-yl-2,3-dihydro-isoindol-1-one trifluoroacetate] | < 100 | < 100 | < 100 |
| COc1ccc(-c2cccnc2)c2c1CN(CCc1cn3ccccc3n1)C2=O [Example 218, 2-(2-Imidazo[1,2-a]pyridin-2-yl-ethyl)-4-methoxy-7-pyridin-3-yl-2,3-dihydro-isoindol-1-one trifluoroacetate] | < 100 | < 100 | < 100 |
| O=C1c2c(cccc2-c2ccncc2)CN1CCc1nc2ccccc2s1 [Example 223, 2-(2-Benzothiazol-2-yl-ethyl)-7-pyridin-4-yl-2,3-dihydro-isoindol-1-one trifluoroacetate] | < 100 | < 100 | < 100 |
| O=C1c2c(N3CCOCC3)ccnc2CN1CCc1nc2ccccn2n1 [Example 227, 4-Morpholin-4-yl-6-(2-[1,2,4]triazolo[1,5-a]pyridin-2-yl-ethyl)-6,7-dihydro-pyrrolo[3,4-b]pyridin-5-one] | < 100 | < 100 | < 100 |
| O=C1c2c(cccc2-c2ccncc2)CN1CCc1nc2ccccn2n1 [Example 230, 7-Pyridin-4-yl-2-(2-[1,2,4]triazolo[1,5-a]pyridin-2-yl-ethyl)-2,3-dihydro-isoindol-1-one] | 200 to 500 | < 100 | < 100 |
| O=C1c2c(cccc2N2CCS(=O)(=O)CC2)CN1CCc1cn2ccccc2n1 [Example 234, 7-(1,1-Dioxothiomorpholin-4-yl)-2-(2-imidazo[1,2-a]pyridin-2-yl-ethyl)-2,3-dihydro-isoindol-1-one] | < 100 | < 100 | < 100 |
| O=C1c2c(cccc2-c2cccnc2)CN1CCc1cn2ccccc2n1 [Example 235, 2-(2-Imidazo[1,2-a]pyridin-2-yl-ethyl)-7-pyridin-3-yl-2,3-dihydro-isoindol-1-one] | < 100 | < 100 | 100 to 220 |
| O=C1c2c(cccc2-c2ccc(F)cc2)CN1CCc1cn2ccccc2n1 [Example 236, 7-(4-Fluoro-phenyl)-2-(2-imidazol[1,2-a]pyridin-2-yl-ethyl)-2,3-dihydro-isoindol-1-one] | 200 to 500 | 100 to 220 | 100 to 220 |
| O=C1c2c(cccc2-c2cncnc2)CN1CCc1cn2ccccc2n1 [Example 238, 2-(2-Imidazo[1,2-a]pyridin-2-yl-ethyl)-7-pyrimidin-5-yl-2,3-dihydro-isoindol-1-one] | < 100 | < 100 | 100 to 220 |
| Cn1nccc1-c1cccc2c1C(=O)N(CCc1cn3ccccc3n1)C2 [Example 239, 2-(2-Imidazo[1,2-a]pyridin-2-yl-ethyl)-7-(2-methyl-2H-pyrazol-3-yl)-2,3-dihydro-isoindol-1-one] | 100 to 200 | < 100 | < 100 |
| Cc1ncccc1-c1cccc2c1C(=O)N(CCc1cn3ccccc3n1)C2 [Example 240, 2-(2-Imidazo[1,2-a]pyridin-2-yl-ethyl)-7-(2-methyl-pyridin-3-yl)-2,3-dihydro-isoindol-1-one] | < 100 | 100 to 220 | < 100 |
| O=C1Cc2ccc(-c3cccc4c3C(=O)N(CCc3cn5ccccc5n3)C4)cc2N1 [Example 241, 6-[2-(2-Imidazo[1,2-a]pyridin-2-yl-ethyl)-3-oxo-2,3-dihydro-1H-isoindol-4-yl]-1,3-dihydro-indol-2-one] | < 100 | < 100 | < 100 |
| O=C1c2c(cccc2-c2cn[nH]c2)CN1CCc1cn2ccccc2n1 [Example 242, 2-(2-Imidazo[1,2-a]pyridin-2-yl-ethyl)-7-(1H-pyrazol-4-yl)-2,3-dihydro-isoindol-1-one] | 100 to 200 | 100 to 220 | < 100 |
| O=C1c2c(cccc2-c2ccc3nc[nH]c3c2)CN1CCc1cn2ccccc2n1 [Example 244, 7-(3H-Benzoimidazol-5-yl)-2-(2-imidazol[1,2-a]pyridin-2-yl-ethyl)-2,3-dihydro-isoindol-1-one] | 100 to 200 | < 100 | < 100 |
| O=C1c2c(cccc2-c2ccc3[nH]c(=O)[nH]c3c2)CN1CCc1cn2ccccc2n1 [Example 245, 5-[2-(2-Imidazo[1,2-a]pyridin-2-yl-ethyl)-3-oxo-2,3-dihydro-1H-isoindol-4-yl]-1,3-dihydro-benzoimidazol-2-one] | < 100 | < 100 | < 100 |
| O=C1c2cccc(OCc3cccnc3)c2C(=O)N1CCc1ccc2ccccc2n1 [Example 246, 4-(Pyridin-3-ylmethoxy)-2-(2-quinolin-2-yl-ethyl)-isoindole-1,3-dione] | < 100 | > 220 | 100 to 220 |
| COc1ccc(N2CCOCC2)c2c1CN(CCc1ccc3ccccc3n1)C2=O [Example 248, 4-Methoxy-7-morpholin-4-yl-2-(2-quinolin-2-yl-ethyl)-2,3-dihydro-isoindol-1-one] | < 100 | < 100 | < 100 |
| O=C1c2cccc(N3CCS(=O)(=O)CC3)c2C(=O)N1CCc1ccc2ccccc2n1 [Example 250, 4-(1,1-Dioxothiomorpholin-4-yl)-2-(2-quinolin-2-yl-ethyl)-isoindole-1,3-dione] | < 100 | > 220 | 100 to 220 |
| O=C1c2c(cccc2-c2cccnc2)CN1CCc1nc2ncccc2[nH]1 [Example 253, 2-[2-(1H-Imidazo[4,5-b]pyridin-2-yl)-ethyl]-7-pyridin-3-yl-2,3-dihydro-isoindol-1-one] | 200 to 500 | < 100 | < 100 |
| Cn1nccc1-c1ccnc2c1C(=O)N(CCc1cn3ccccc3n1)C2 [Example 255, 6-(2-Imidazo[1,2-a]pyridin-2-yl-ethyl)-4-(2-methyl-2H-pyrazol-3-yl)-6,7-dihydro-pyrrolo[3,4-b]pyridin-5-one] | 100 to 200 | < 100 | < 100 |
| O=C1c2c(-c3cncnc3)ccnc2CN1CCc1cn2ccccc2n1 [Example 256, 6-(2-Imidazo[1,2-a]pyridin-2-yl-ethyl)-4-pyrimidin-5-yl-6,7-dihydro-pyrrolo[3,4-b]pyridin-5-one] | < 100 | < 100 | < 100 |
| O=C1c2c(N3CCC4(COC4)C3)ccnc2CN1CCc1ccc2ccccc2n1 [Example 257, 4-(2-Oxa-6-aza-spiro[3.4]oct-6-yl)-6-(2-quinolin-2-yl-ethyl)-6,7-dihydro-pyrrolo[3,4-b]pyridin-5-one] | < 100 | 100 to 220 | 100 to 220 |
